Laboratory results from ChEMBL document CHEMBL1201862, “PubChem BioAssay data set” (2004).
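Five compound concentrations were applied to cells in 96-well plates for 48 hours; endpoints were derived by simple linear interpolation of the resulting dose-response curve. Here, GI50 denotes the concentration required for 50% inhibition of growth.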 Activity calls are given as the source filed them. Cut-off read from the data, not from the text of the source: active = GI50 up to about 1.1 µM and inactive = higher.

Key:
Assay in all cases: inhibition of tumour cell growth, NCI panel, 48 h
ACHN = tested on: ACHN
EKVX = tested on: EKVX
HCT-15 = tested on: HCT-15
HOP-62 = tested on: HOP-62
IGROV-1 = tested on: IGROV-1
K562 = tested on: K562
KM12 = tested on: KM12
M14 = tested on: M14
NCI-H226 = tested on: NCI-H226
OVCAR-8 = tested on: OVCAR-8
SF-268 = tested on: SF-268
SK-MEL-2 = tested on: SK-MEL-2
SK-OV-3 = tested on: SK-OV-3
SN12C = tested on: SN12C
SNB-19 = tested on: SNB-19
TK-10 = tested on: TK-10
U-251 = tested on: U-251
UACC-257 = tested on: UACC-257
UO-31 = tested on: UO-31

**Q.** What does the source list for `O=C(/C=C/c1ccccc1O)c1cccs1`?
**A.** GI50 (ACHN): > 100 µM (inactive); GI50 (EKVX): > 100 µM (inactive); GI50 (HCT-15): > 100 µM; GI50 (HOP-62): > 100 µM (inactive); GI50 (IGROV-1): > 100 µM (inactive); GI50 (K562): > 100 µM (inactive); GI50 (KM12): > 100 µM (inactive); GI50 (M14): > 100 µM (inactive); GI50 (NCI-H226): > 100 µM (inactive); GI50 (OVCAR-8): > 100 µM (inactive); GI50 (SF-268): > 100 µM (inactive); GI50 (SK-MEL-2): > 100 µM (inactive); GI50 (SK-OV-3): > 100 µM (inactive); GI50 (SN12C): > 100 µM (inactive); GI50 (SNB-19): > 100 µM (inactive); GI50 (TK-10): > 100 µM (inactive); GI50 (U-251): > 100 µM (inactive); GI50 (UACC-257): > 100 µM (inactive); GI50 (UO-31): > 100 µM (inactive)

**Q.** With `C/C(=C\c1ccccc1)C(O)C(=O)c1nc2ccc(Cl)cc2nc1O` (centres undefined) as the compound, how does the GI50 (ACHN) read?
**A.** Its GI50 is > 100 µM (inactive).

**Q.** What about the GI50 (EKVX) of the same compound?
**A.** Its GI50 is 91.2 µM (inactive).

**Q.** What about the GI50 (HCT-15) of the same compound?
**A.** Its GI50 is > 100 µM.

**Q.** And the GI50 (HOP-62)?
**A.** The GI50 was > 100 µM (inactive).

**Q.** What about the GI50 (IGROV-1) of the same compound?
**A.** Its GI50 is > 100 µM (inactive).

**Q.** And the GI50 (K562)?
**A.** The GI50 was 55.5 µM (inactive).

**Q.** What about the GI50 (KM12) of the same compound?
**A.** The GI50 was > 100 µM (inactive).

**Q.** What about the GI50 (M14) of the same compound?
**A.** Its GI50 is > 100 µM (inactive).

**Q.** What about the GI50 (NCI-H226) of the same compound?
**A.** The GI50 was > 100 µM (inactive).

**Q.** And the GI50 (OVCAR-8)?
**A.** Its GI50 is > 100 µM (inactive).

**Q.** And the GI50 (SF-268)?
**A.** The GI50 was > 100 µM (inactive).

**Q.** And the GI50 (SK-MEL-2)?
**A.** The GI50 was > 100 µM (inactive).

**Q.** And the GI50 (SK-OV-3)?
**A.** The GI50 was > 100 µM (inactive).

**Q.** What about the GI50 (SN12C) of the same compound?
**A.** Its GI50 is > 100 µM (inactive).

**Q.** And the GI50 (SNB-19)?
**A.** Its GI50 is > 100 µM (inactive).

**Q.** What about the GI50 (TK-10) of the same compound?
**A.** Its GI50 is > 100 µM (inactive).

**Q.** What about the GI50 (U-251) of the same compound?
**A.** The GI50 was > 100 µM (inactive).

**Q.** And the GI50 (UACC-257)?
**A.** Its GI50 is > 100 µM (inactive).

**Q.** What about the GI50 (UO-31) of the same compound?
**A.** The GI50 was > 100 µM (inactive).

**Q.** With `Cc1nc(-c2nc([N+](=O)[O-])c([N+](=O)[O-])[nH]2)cs1` as the compound, how does the GI50 (ACHN) read?
**A.** The GI50 was > 100 µM (inactive).

**Q.** And the GI50 (EKVX)?
**A.** The GI50 was > 100 µM (inactive).

**Q.** And the GI50 (HOP-62)?
**A.** The GI50 was > 100 µM (inactive).

**Q.** And the GI50 (IGROV-1)?
**A.** Its GI50 is > 100 µM (inactive).

**Q.** And the GI50 (K562)?
**A.** Its GI50 is > 100 µM (inactive).

**Q.** And the GI50 (KM12)?
**A.** Its GI50 is > 100 µM (inactive).

**Q.** And the GI50 (M14)?
**A.** Its GI50 is > 100 µM (inactive).

**Q.** What about the GI50 (NCI-H226) of the same compound?
**A.** The GI50 was > 100 µM (inactive).

**Q.** What about the GI50 (SF-268) of the same compound?
**A.** Its GI50 is 88.9 µM (inactive).

**Q.** And the GI50 (SK-MEL-2)?
**A.** Its GI50 is > 100 µM (inactive).

**Q.** And the GI50 (SK-OV-3)?
**A.** Its GI50 is > 100 µM (inactive).

**Q.** And the GI50 (SN12C)?
**A.** Its GI50 is > 100 µM (inactive).

**Q.** What about the GI50 (SNB-19) of the same compound?
**A.** Its GI50 is > 100 µM (inactive).

**Q.** What about the GI50 (TK-10) of the same compound?
**A.** Its GI50 is > 100 µM (inactive).

**Q.** What about the GI50 (U-251) of the same compound?
**A.** The GI50 was > 100 µM (inactive).

**Q.** What about the GI50 (UACC-257) of the same compound?
**A.** The GI50 was > 100 µM (inactive).

**Q.** What about the GI50 (UO-31) of the same compound?
**A.** The GI50 was > 100 µM (inactive).

**Q.** What does the source list for `O=C1NN=C(c2ccc([N+](=O)[O-])cc2)C1n1nc(-c2ccccc2)c2ccccc2c1=O` (centres undefined)?
**A.** GI50 (ACHN): > 100 µM (inactive); GI50 (EKVX): > 100 µM (inactive); GI50 (HCT-15): > 45.2 µM; GI50 (HOP-62): > 100 µM (inactive); GI50 (IGROV-1): > 100 µM (inactive); GI50 (K562): > 54.5 µM (inactive); GI50 (KM12): > 100 µM (inactive); GI50 (M14): > 100 µM (inactive); GI50 (NCI-H226): > 100 µM (inactive); GI50 (OVCAR-8): > 88.1 µM (inactive); GI50 (SF-268): > 100 µM (inactive); GI50 (SK-MEL-2): > 100 µM (inactive); GI50 (SK-OV-3): > 100 µM (inactive); GI50 (SN12C): > 100 µM (inactive); GI50 (SNB-19): > 100 µM (inactive); GI50 (TK-10): > 100 µM (inactive); GI50 (U-251): > 95.7 µM (inactive); GI50 (UACC-257): > 100 µM (inactive); GI50 (UO-31): > 100 µM (inactive)

**Q.** With `COc1cccc(-c2nccc3c(OCc4ccccc4)c(OC)c(OC)cc23)c1` as the compound, how does the GI50 (ACHN) read?
**A.** Its GI50 is 54.6 µM (inactive).

**Q.** And the GI50 (EKVX)?
**A.** Its GI50 is > 100 µM (inactive).

**Q.** What about the GI50 (HCT-15) of the same compound?
**A.** The GI50 was 4.72 µM.

**Q.** And the GI50 (HOP-62)?
**A.** Its GI50 is > 100 µM (inactive).

**Q.** What about the GI50 (IGROV-1) of the same compound?
**A.** Its GI50 is > 100 µM (inactive).

**Q.** And the GI50 (K562)?
**A.** The GI50 was 4.91 µM (inactive).

**Q.** And the GI50 (KM12)?
**A.** Its GI50 is > 100 µM (inactive).

**Q.** What about the GI50 (M14) of the same compound?
**A.** The GI50 was > 100 µM (inactive).

**Q.** And the GI50 (NCI-H226)?
**A.** The GI50 was > 100 µM (inactive).

**Q.** What about the GI50 (OVCAR-8) of the same compound?
**A.** Its GI50 is > 100 µM (inactive).

**Q.** And the GI50 (SF-268)?
**A.** The GI50 was > 100 µM (inactive).

**Q.** What about the GI50 (SK-MEL-2) of the same compound?
**A.** Its GI50 is 30.1 µM (inactive).

**Q.** What about the GI50 (SK-OV-3) of the same compound?
**A.** The GI50 was > 100 µM (inactive).

**Q.** What about the GI50 (SN12C) of the same compound?
**A.** The GI50 was 7.67 µM (inactive).

**Q.** What about the GI50 (SNB-19) of the same compound?
**A.** Its GI50 is > 100 µM (inactive).

**Q.** And the GI50 (TK-10)?
**A.** Its GI50 is > 100 µM (inactive).

**Q.** And the GI50 (U-251)?
**A.** The GI50 was 6.46 µM (inactive).

**Q.** And the GI50 (UACC-257)?
**A.** The GI50 was > 100 µM (inactive).

**Q.** And the GI50 (UO-31)?
**A.** The GI50 was 7.29 µM (inactive).

**Q.** What does the source list for `COc1ccc(C2=N/C(=C\c3ccccc3)C(=O)O2)cc1`?
**A.** GI50 (ACHN): > 100 µM (inactive); GI50 (EKVX): > 100 µM (inactive); GI50 (HCT-15): 52.1 µM; GI50 (HOP-62): 38.7 µM (inactive); GI50 (IGROV-1): > 100 µM (inactive); GI50 (K562): 34 µM (inactive); GI50 (KM12): 36.6 µM (inactive); GI50 (M14): > 100 µM (inactive); GI50 (NCI-H226): 28.5 µM (inactive); GI50 (OVCAR-8): 30.8 µM (inactive); GI50 (SF-268): > 100 µM (inactive); GI50 (SK-MEL-2): > 100 µM (inactive); GI50 (SK-OV-3): > 100 µM (inactive); GI50 (SNB-19): 75.7 µM (inactive); GI50 (TK-10): > 100 µM (inactive); GI50 (U-251): 62.7 µM (inactive); GI50 (UACC-257): > 100 µM (inactive)

**Q.** `NC(=O)c1csc(CCCCCCc2nc(C(N)=O)cs2)n1` was tested. Which GI50 (ACHN) did it give?
**A.** The GI50 was > 100 µM (inactive).

**Q.** And the GI50 (EKVX)?
**A.** Its GI50 is > 100 µM (inactive).

**Q.** And the GI50 (HCT-15)?
**A.** Its GI50 is > 100 µM.

**Q.** What about the GI50 (HOP-62) of the same compound?
**A.** The GI50 was > 100 µM (inactive).

**Q.** And the GI50 (IGROV-1)?
**A.** The GI50 was > 100 µM (inactive).

**Q.** And the GI50 (K562)?
**A.** The GI50 was > 39.1 µM (inactive).

**Q.** What about the GI50 (KM12) of the same compound?
**A.** The GI50 was > 59.4 µM (inactive).

**Q.** And the GI50 (M14)?
**A.** The GI50 was > 100 µM (inactive).

**Q.** What about the GI50 (NCI-H226) of the same compound?
**A.** Its GI50 is > 100 µM (inactive).

**Q.** What about the GI50 (OVCAR-8) of the same compound?
**A.** Its GI50 is > 100 µM (inactive).

**Q.** What about the GI50 (SF-268) of the same compound?
**A.** The GI50 was > 100 µM (inactive).

**Q.** What about the GI50 (SK-MEL-2) of the same compound?
**A.** Its GI50 is > 100 µM (inactive).

**Q.** And the GI50 (SK-OV-3)?
**A.** Its GI50 is > 100 µM (inactive).

**Q.** And the GI50 (SN12C)?
**A.** Its GI50 is > 100 µM (inactive).

**Q.** What about the GI50 (SNB-19) of the same compound?
**A.** The GI50 was > 100 µM (inactive).

**Q.** What about the GI50 (TK-10) of the same compound?
**A.** The GI50 was > 100 µM (inactive).

**Q.** What about the GI50 (U-251) of the same compound?
**A.** The GI50 was > 42.5 µM (inactive).

**Q.** And the GI50 (UACC-257)?
**A.** The GI50 was > 62.5 µM (inactive).

**Q.** And the GI50 (UO-31)?
**A.** The GI50 was > 100 µM (inactive).
